Test results from the supplement of paper PMC10307832.

How the values were obtained:
Assay in all cases: relative viability (nuclei count vs DMSO), 5 days (fraction); higher = more cells survive
AZ3146 + AZD7762 = compound: CN1CCC(CC1)OC2=CC(=C(C=C2)NC3=NC=C4C(=N3)N(C(=O)N4C)C5CCCC5)OC [AZ3146] + NC(=O)Nc1cc(-c2cccc(F)c2)sc1C(=O)N[C@H]1CCCNC1 [AZD7762] (partner 0.2 µM)
Procedure, shortened: (§1)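 Cells from lung cancer lines were seeded into 1536-well plates and, one day later, dosed by pin tool. Treatments were either a single drug or a fixed dose of an anchor drug with five library-drug doses (not always all listed) in √10 steps. After 5 days, nuclei were stained in a one-step fixation (final 0.05% Triton X-100, 1% formaldehyde, 1 ug/ml Hoechst) and counted on 4× images, and relative viability is the treated-to-vehicle nuclei ratio, as the median of duplicate plates.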

GSK-J4 + Crizotinib = compound: CCOC(=O)CCNc1cc(N2CCc3ccccc3CC2)nc(-c2ccccn2)n1 [GSK-J4] + C[C@@H](Oc1cc(-c2cnn(C3CCNCC3)c2)cnc1N)c1c(Cl)ccc(F)c1Cl [Crizotinib] (partner 1 µM)
Procedure, shortened: as §1

AZ3146 + Bortezomib = compound: CN1CCC(CC1)OC2=CC(=C(C=C2)NC3=NC=C4C(=N3)N(C(=O)N4C)C5CCCC5)OC [AZ3146] + CC(C)C[C@H](NC(=O)[C@H](Cc1ccccc1)NC(=O)c1cnccn1)B(O)O [Bortezomib] (partner 0.002 µM)
Procedure, shortened: as §1

GSK-J4 + Bortezomib = compound: CCOC(=O)CCNc1cc(N2CCc3ccccc3CC2)nc(-c2ccccn2)n1 [GSK-J4] + CC(C)C[C@H](NC(=O)[C@H](Cc1ccccc1)NC(=O)c1cnccn1)B(O)O [Bortezomib] (partner 0.002 µM)
Procedure, shortened: as §1

| Cell Line | relative viability (AZ3146 + AZD7762; first compound 0.08 µM) | relative viability (AZ3146 + AZD7762; first compound 0.253 µM) | relative viability (AZ3146 + AZD7762; first compound 0.8 µM) | relative viability (AZ3146 + AZD7762; first compound 2.53 µM) | relative viability (AZ3146 + AZD7762; first compound 8 µM) | relative viability (GSK-J4 + Crizotinib; first compound 0.5 µM) | relative viability (GSK-J4 + Crizotinib; first compound 1.581 µM) | relative viability (GSK-J4 + Crizotinib; first compound 5 µM) | relative viability (GSK-J4 + Crizotinib; first compound 15.81 µM) | relative viability (GSK-J4 + Crizotinib; first compound 50 µM) | relative viability (AZ3146 + Bortezomib; first compound 0.8 µM) | relative viability (AZ3146 + Bortezomib; first compound 2.53 µM) | relative viability (AZ3146 + Bortezomib; first compound 8 µM) | relative viability (GSK-J4 + Bortezomib; first compound 0.5 µM) | relative viability (GSK-J4 + Bortezomib; first compound 1.581 µM) | relative viability (GSK-J4 + Bortezomib; first compound 5 µM) | relative viability (GSK-J4 + Bortezomib; first compound 15.81 µM) | relative viability (GSK-J4 + Bortezomib; first compound 50 µM) | relative viability (AZ3146 + Bortezomib; first compound 0.08 µM) | relative viability (AZ3146 + Bortezomib; first compound 0.253 µM) |
| --- | --- | --- | --- | --- | --- | --- | --- | --- | --- | --- | --- | --- | --- | --- | --- | --- | --- | --- | --- | --- |
| NCI-H2342 | 0.472 | 0.481 | 0.489 | 0.521 | 0.529 | – | – | – | – | – | – | – | – | – | – | – | – | – | – | – |
| NCI-H1944 | 0.311 | 0.509 | 0.482 | 0.516 | 0.469 | 1.14 | 1.06 | 1.11 | 1.1 | 1.07 | – | – | – | – | – | – | – | – | – | – |
| SK-LU-1 | – | – | – | – | – | 0.756 | 0.762 | 0.725 | 0.607 | 0.584 | 1.02 | 1.15 | 1.5 | 1.02 | 1.06 | 0.705 | 0.8 | 0.902 | – | – |
| HCC-44 | 1.02 | 0.978 | 1.12 | 1 | 0.979 | 0.759 | 0.705 | 0.696 | 0.825 | 0.755 | 0.881 | 0.909 | 0.884 | 0.842 | 0.86 | 0.916 | 0.892 | 0.934 | 0.875 | 0.908 |
| 201T | 0.534 | 0.643 | 0.634 | 0.553 | 0.594 | 1.01 | 1.07 | 1.01 | 1.02 | 0.996 | 1.11 | 1.16 | 1.12 | 1.03 | 1.08 | 1.05 | 1.14 | 1.09 | 1.1 | 1.07 |
| IA-LM | – | – | – | – | – | 0.793 | 0.745 | 0.867 | 0.691 | 0.0902 | 0.759 | 0.695 | 0.264 | 0.709 | 0.816 | 0.775 | 0.763 | 0.131 | 0.643 | 0.775 |
| NCI-H661 | – | – | – | – | – | 0.873 | 0.969 | 1.04 | 0.913 | 0.814 | 0.92 | 0.922 | 0.692 | 0.896 | 0.852 | 0.791 | 0.589 | 0.583 | 0.71 | 0.893 |
| NCI-H2087 | 1.18 | 1.36 | 1.22 | 1.38 | 1.16 | 0.685 | 0.767 | – | 0.859 | 0.516 | 0.734 | 0.955 | 0.916 | 0.789 | 0.763 | – | 0.701 | 0.72 | 0.676 | 0.908 |
| NCI-H647 | 0.272 | 0.541 | 0.486 | 0.342 | 0.326 | 1.01 | 0.759 | 0.865 | 0.991 | 1.01 | 0.996 | 1.21 | 0.405 | 0.912 | 0.862 | 0.652 | 1.12 | 0.982 | 0.918 | 0.941 |
| A-427 | 0.622 | 0.665 | 0.56 | 0.527 | 0.508 | 0.844 | – | 0.852 | 0.591 | 0.362 | 0.94 | 1.07 | 0.875 | 0.937 | – | 0.839 | 0.781 | 0.789 | 0.995 | 1.06 |
| NCI-H520 | – | – | – | – | – | 0.737 | 0.633 | 0.846 | 0.805 | 0.553 | 0.614 | 0.673 | 0.583 | 0.553 | 0.316 | 0.299 | 0.509 | 0.556 | 0.355 | 0.677 |
| NCI-H1755 | 0.502 | 0.482 | 0.455 | 0.445 | 0.519 | 0.841 | 0.821 | 0.891 | 0.733 | 0.772 | 0.921 | 1.04 | 0.667 | 0.937 | 0.813 | 0.649 | 0.886 | 0.905 | 1.03 | 0.996 |
| NCI-H1975 | 0.628 | – | 0.752 | 0.778 | 0.638 | 0.928 | 1.02 | – | 0.998 | 1 | 0.383 | 0.384 | 0.256 | 0.383 | 0.354 | – | 0.368 | 0.413 | 0.36 | 0.425 |
| ChaGo-K-1 | 0.739 | 0.91 | 0.865 | 0.833 | 0.733 | 1.03 | – | 0.879 | 1.12 | 0.926 | 0.932 | 0.961 | 0.738 | 1.21 | – | 0.913 | 0.972 | 0.931 | 0.93 | 0.837 |
| BEN | – | 0.608 | 0.668 | 0.589 | 0.68 | 0.865 | 0.795 | – | 0.759 | 0.688 | 0.752 | 0.762 | 0.726 | 0.898 | 0.719 | – | 0.857 | 0.735 | – | 0.588 |
| SW 1573 | – | – | – | – | – | 0.701 | 0.726 | 0.832 | 0.754 | 0.608 | 1.09 | 0.869 | 0.777 | 0.872 | 0.724 | 1.08 | 1.07 | 0.898 | 0.995 | 1.03 |
| EPLC-272H | 0.136 | 0.199 | 0.175 | 0.24 | 0.237 | 0.956 | – | 1.14 | 0.816 | 0.915 | 0.879 | 0.97 | 1.03 | 0.864 | – | 1.01 | 0.851 | 0.936 | 0.754 | 0.968 |
| LK-2 | – | – | 0.372 | 0.347 | 0.286 | 0.256 | 0.212 | 0.203 | 0.191 | 0.244 | – | – | – | – | – | – | – | – | – | – |
| NCI-H23 | 0.157 | 0.3 | 0.27 | 0.216 | 0.163 | 0.553 | – | 0.456 | 0.413 | 0.422 | 1.21 | 1.11 | 0.876 | 0.987 | – | 0.791 | 1.03 | 0.969 | 1.15 | 1.08 |
